# Data as given in patent US20070292351A1, “Assay for efficacy of histone deacetylase inhibitors” (Methylgene, Inc., priority 2006, published 2007).
# Columns and labels:
# bone marrow blast count = assay: Bone marrow blast count in AML patient; assay type: in vivo, human; details: AML Patient A, 2 cycles of treatment (FIG. 10)
# Protocol: FIG. 10. Reduction of bone marrow blast count in Patient A after 2 cycles of MGCD0103 treatment in vivo.
# (§1) Human patients with either solid tumors or leukemia/MDS diseases were enrolled in phase I studies with consensus forms. MGCD0103 were dosed into patients orally every other day (day 1, day 3, day 5 […]). Blood samples were withdrawled by using the Vacutainer sodium-heparin blood collection tubes (Becton Dickinson Laboratories, Franklin Lakes, N.J.) and shipped to the test site within 24 hours on ice-pack. Baseline samples were drawn immediately prior to the first drug dose, while the 24 hour samples were drawn at 24 hours post the first drug dose. The 48 hours samples were drawn at 48 hours post the first dose. For the 1 week samples, blood was drawn 72 hours after day 5 dose (3 accumulated doses during week 1).
# IL-6 and IL-8 = assay: Cytokine antibody array of patient plasma; assay type: in vivo, human; details: two leukemia patients treated orally; cytokine antibody array (FIG. 16)
# Protocol: FIG. 16 Induction of IL-6 and IL-8 expression in plasma from two leukemia patients treated with MGCD0103 orally in vivo, as determined by cytokine antibody array.
# as §1
# 10 ml blood from patients were centrifuged at 2500 RPM for 10 min at 10° C. […] The levels of cytokines in the plasma were determined using the TranSignal Human Cytokine Antibody Array 1.0 (Cat#MA6120, Panomics Inc. Redwood City, Calif.) following the manufacturer's instructions. […] Blots were developed by autoradiography, scanned and quantitated using the Cyclone Software. Data was calculated, plotted using Excel and expressed as fold induction from Day 8 following treatment over baseline Day 0 samples.
# human RPMI8226 cells = assay: IL-6 transcription in RPMI8226 cells; assay type: cell-based; details: 24 hours (FIG. 14)
# Protocol: (§2) Quantitative PCR with SYBR Green I detection with Mastercycler® ep realplex (Eppendorf) was performed using LightCycler® 480 SYBR Green I Master (Roche Diagnostics). SYBR Green I assays were performed with 600 nM primers. All other reaction conditions were as described by the manufacturer. Amplification conditions were 5 minutes of initial denaturation at 95° C., followed by 40 cycles of each 15 seconds at 95° C., 15 seconds at 63.4° C., 20 seconds at 68° C., a melting curve from 60° C. to 95° C. was recorded. Quantification was performed using Pfaffl method, a relative quantification method in real-time PCR (Nucleic Acids Research 2001 29:2002-2007). Primers were synthesized by Invitrogen (Invitrogen-Canada, Burlington, Ont.).
# RPMI-8226 myeloma cells = assay: RT-PCR of MT3 transcription in RPMI-8226 cells; assay type: cell-based, human; details: 16 h, semi-quantitative RT-PCR (FIG. 2)
# Protocol: RNA was extracted from 8×10^6 cells using the Qiagen RNeasy Mini kit (cat#74106, Qiagen, Missisauga Ont.) following the manufacturer's instructions. RT reaction was performed using the Expand Reverse Transcriptase kit from Roche (Cat#1 785 834 Roche Applied Biosciences, Laval, Que) with 1 μg total RNA together with 1 μl oligo(dT) primer (cat#y01212, Invitrogen-Canada, Burlington, Ont). cDNA was synthesized using an Eppendorf Mastercycler gradient PCR apparatus (Brinkmann Instruments Canada LTD., Mississauga, Ontario), using a two cycle protocol. For the 1st cycle reaction mixture (0.5 μl H2O, 4 μl of 5× Buffer, 2 μl DTT, 2 ul of 10 mM dNTPs, 0.5 μl RNAsin (cat#N211B, Promega, Fisher Scientific, Whitby, Ont.) and […] of the Expand Reverse Transcriptase (Cat#1785834, Roche, Laval, Quebec)) was incubated at 65° C. for 10 minutes and then set on ice. A second cycle was performed at 42° C. for 1 hour. The resulting cDNA products were kept at 4° C. until used.
# One ul of the resulting cDNA was used for every amplification reaction with 18.9 ul H2O, 1.25 ul of 10 mM dNTPs, 0.5 ul of each primer pair, 2.5 ul of 10× Buffer. The PCR reaction was carried out in an Eppendorf Mastercycler gradient. The sequences of the primers used for the amplification of selected biomarkers, as well as the details of the PCR reaction cycles are featured below. […]
# IL-6 = IL-6 protein levels in plasma by ELISA; assay type: in vivo, human; details: leukemia patients, Day 8, ELISA (FIG. 17)
# Protocol: FIG. 17 Induction of plasma IL-6 from leukemia patients from treated with MGCD0103 at Day 8, analyzed by ELISA assays.
# Patient plasma samples at […] were analyzed by ELISA
# as §1
# Blood from patients was centrifuged at 2500 RPM for 10 min at 10° C. Plasma was separated and frozen until used. Plasma was thawed, and spun again at 2500 RPM for 10 min at 10° C. The level of IL-6 was determined by ELISA (eBioscience, San Diego, Calif.), following the manufacturer's instructions. IL-6 concentration (pg/ml) in the samples was calculated from a standard curve generated by using standard IL-6 also provided in the kit. […] All the data was calculated and plotted using Excel.
# peripheral white cells = assay: Cytokine/chemokine transcription in peripheral white cells of AML patients treated in vivo; parameters: species or system human; details: for induction of transcription of IL-6, IL-8, IL-1b, MIP1b: in vivo
# Protocol: FIG. 15 Induction of transcription of IL-6, IL-8, IL-1b, MIP1b cytokine/chemokines by MGCD0103 in peripheral white cells ex vivo from a MDS patient and in vivo in an AML patient with response (Patient J).
# Whole blood from either consenting healthy volunteers or consenting patients was centrifuged at 2500 rpm for 10 minutes at ambient temperature in a Sorvall RT-7 centrifuge (Mandel Scientific Co., Guelph, Ontario). Plasma was removed and buffy coat was collected. Five volumes of Erythrocyte Lysis Buffer (EL) (Qiagen Canada Inc., Mississauga, Ontario) were added into buffy coat. Buffy coat was incubated on ice for 20 minutes before it was centrifuged at 400 g for 10 minutes at 4° C. Supernatant was removed and buffy coat was washed twice with EL buffer and re-centrifuged. Buffy coat was resuspended in RPMI media and cells were counted with trypan blue exclusion. To isolate PBMCs, buffy coat cells were centrifuged over Lymphoprep (Axis-Shield, 1114544), and any remaining erythrocytes in the sample were lysed by treatment with EL lysis buffer (Qiagen, 79217). The cell pellets are washed and then re-suspended in RPMI containing 10% FBS.
# as §1
# Jurkat cells = assay: IL-6 transcription in Jurkat cells; assay type: cell-based, human; details: 24 hours (FIG. 14)
# Protocol: as §2
smiles,measurement,setting,value
Nc1ccccc1NC(=O)c1ccc(CNc2nccc(-c3cccnc3)n2)cc1 [MGCD0103],bone marrow blast count,bone marrow blast count,reduction
same,induction of IL-6 and IL-8 expression in plasma,IL-6 and IL-8,induction
same,dose-dependent induction of IL-6 transcription,human RPMI8226 cells,dose-dependent induction
same,Dose-dependent induction of MT3 transcription,RPMI-8226 myeloma cells,Dose-dependent induction
same,induction of plasma IL-6,IL-6,induction
same,expression level of other cytokine/chemokines,peripheral white cells; ex vivo/in vivo in patients (data not shown),either decreased or remained unmodified
same,"induction of transcription of IL-6, IL-8, IL-1b, MIP1b",peripheral white cells; AML patient with response (Patient A) (FIG. 15),induction
same,"induction of transcription of IL-6, IL-8, IL-1b, MIP1b","peripheral white cells; two AML patients without clinical response (Patient B, C) (FIG. 15)",No such induction
same,dose-dependent induction of IL-6 transcription,Jurkat cells,dose-dependent induction
